US20240182382A1, “ALIPHATIC 18F-RADIOLABELING OF A TETRAZINE PRECURSOR” (UNIVERSITY OF COPENHAGEN, priority 2021, published 2024)
Values belong to the compound of their own block, whether it stands above or below them.

Tests used:
[1] = Bench stability by analytical HPLC; assay type: physicochemical
Experimental: The stability of [^18F]13 and it precursor (28) was investigated by analytical HPLC. [^18F]13 was stable for at least 4 hours and therefore, sufficient for most applications (FIG. 5A). […] The process could be prevented storing the precursor (28) at −20° C. as a solid—at least for 3 months (FIG. 5B).

[2] = Tetrazine core reactivity test with TCO-PNP; assay type: physicochemical; conditions: for tetrazine core after radiolabeling: analytical chromatogram before and after TCO-PNP addition
Experimental: • a) The reaction between [^18F]13 TCO-PNP was performed by mixing the formulated [^18F]13 (200 μL) with 5 μL of the commercially available TCO-PNP ester dissolved in DMF (5 mg/mL) in an analytical HPLC vial. The solution was gently shaken and left for 1 min before it was injected on the analytical HPLC for analysis. • b) The reaction between [^18F]14 and TCO-PNB was performed by mixing the formulated [^18F]14 (200 μL) with 5 μL of the commercially available TCO-PNB ester dissolved in DMF (5 mg/mL) in an analytical HPLC vial. The solution was gently shaken and left for 1 min before it was injected on the analytical HPLC for analysis.

CC49-TCO [3] = assay: Pretargeted PET/CT imaging in LS174T tumor xenograft bearing mice; assay type: in vivo, Balb/c nude mice; conditions: for tumor-to-blood (T/B) ratio: 1 h; for tumor uptake: mice pretreated with CC49-TCO 72 h prior; for tumor-to-muscle ratio in comparison: compared to [64Cu]Cu-NOTA-PEG7-H-Tz, [111In]Tz-Tg and ZZ; for tumor-to-muscle (T/M) ratio: image derived, 1 h p.i., animals pretargeted with CC49-TCO; for pharmacokinetics: pretargeted experiments in mice
Experimental: The ability of [^18F]13 and [^18F]14 to be used as a pretargeting imaging agents was evaluated using a similar pretargeted setup that was used for the ex vivo blocking study in example 7. Mice were administered with CC49-TCO 72 h prior to administration of [^18F]13 or [^18F]14 where after PET/CT scanning was performed 1 h later. Control animals were injected with unconjugated mAb CC49 instead of CC49-TCO, but were otherwise treated exactly the same. After PET/CT scanning, animals were euthanized and an ex vivo biodistribution performed.
A) Pretargeted imaging of [^18F]13: Pretargeted imaging of [^18F]13 as tested in vivo using the TAG-72 targeting antibody CC49 in human colorectal cancer xenograft tumors LS174T. Tumors were established in 7-8 week old Balb/c nude mice and after one week, the animals were injected i.v. with either 50 ug […] TCO-modified CC49 (CC49-TCO, ˜7 TCO/mAb), or non-modified CC49 (control) (n=4 per group). 72 hours later, ^18F-13 (1.74±0.319 (mean±SD) MBq/100 μL (55.3 GBq/μmol) were injected i.v., followed by PET/CT-scan (Inveon®, Siemens Medical Solutions), one hour post injection. PET data was acquired in an energy window of 350-650 KeV and a time resolution of 6 ns followed by a CT scan (360 projections, 65 kV, 500 pA and 400 ms). PET and CT images were aligned by rigid affine registration, after which 3D regions of interest (ROI) were created on the full CT tumor volume, as well as heart and muscle tissue to quantify uptake of [^18F]13 (FIG. 6). Additionally, selected organs were harvested for ex vivo biodistribution. The radioactivity in the tissues were determined using a gamma counter (Wizard 2 , Perkin Elmer). Data was corrected for decay, tissue weight and the injected dose of radioactivity. GraphPad Prism 9 (GraphPad Software) was used for statistical analyses and plotting data. Statistical difference between mean % ID/g values were analyzed using Welch's T-test. Results were considered significant when p<0.05.
B) Pretargeted imaging of [^18]14: LS174T xenografts were established in mice as previously described. When tumors reached a size of ˜100 mm3 animals were matched based on their tumor volume and divided into two groups (tumor volumes of, n=5/group), and injected iv with 50 μg in 100 μL of either CC49-TCO or CC49. After 72 h the animals were administered iv with [^18F ]14(4.74±1.39 MBq in 100 μL) and PET/CT (Inveon, Siemens Medical Solutions, USA) scanned 1 h later, using a PET acquisition time of 5 min, an energy window of 350-650 KeV and a time resolution of 6 ns;
followed by a continuous 360 projections/360° CT scan, acquired with a x-ray tube voltage of 65 kV, a tube anode current of 500 pA and an exposure time per projection of 400 ms (FIG. 8). Mice were anaesthetized breathing 3% sevoflurane (5% for induction) mixed in 35% O2 in N2 and during scans the body temperature of the mice was kept stable using a heating pad.
Signograms from PET scans were reconstructed using a 3-dimensional maximum a posteriori algorithm with correction for scatter and attenuation. The mean percentage of injected dose per grams (% ID/g) was determined by manually creating regions of interest (ROI) on co-registered PET/CT images (Inveon Research Workplace software, Siemens Medical Solutions, USA).

CC49-TCO [4] = assay: Ex vivo blocking assay: blocking of [111In]Tz-Tg binding to CC49-TCO in LS174T tumor xenografts; set-up: species or system nude BALB/c mice; conditions: for Normalized Tumor blocking effect: change in tumor uptake of [111In]Tz-Tg 22 h p.i., Tz administered 1 h prior, normalized to non-blocked control, mean from n = 3 mice/group
Experimental: FIG. 3 show a schematic display of the blocking assay. The blocking effect of non-radiolabeled Tz was determined as the change in tumor uptake of [111 1n]Tz-Tg 22 h p.i. Each Tz was administered 1 h prior to [111 1n]Tz-Tg and the uptake normalized to a group of animals were no blocking was performed (control).
The inventors have recently developed a blocking assay that allows to assess the in vivo ligation performance of unlabeled tetrazine derivatives. This assay omits time-consuming development of radiolabeled tetrazines for every ligand to be tested. In this assay, binding of [^111In]Tz-Tg (see structure in example 7), a literature described pretargeted imaging agent, is blocked in vivo to the pretargeting vector CC49-TCO (described in Stéen, J.; Jørgensen, J. T.; Christoph, D.; Battisti, U. M.; Nørregaard, K.; Edem, P.; Bratteby, K.; Shalgunov, V.; Martin, W.; Svatunek, D.; Poulie, C. B. M.; Hvass, L.; Simon, M.; Thomas, W.; Rossin, R.; Robillard, M.; Kristensen, J. L.; Mikula, H.; Kjaer, A.; Herth, M. Lipophilicity and Click Reactivity Determine the Performance of Bioorthogonal Tetrazine Tools in Pretargeted in Vivo Chemistry; 2020 Dec. 24, 2020.), which was administered 72 h prior. The blocking effect of the unlabeled tetrazine derivatives is afterwards quantified via an ex vivo biodistribution study and normalized to the binding of [^111In]Tz-Tg determined without any blocking.
All animal studies were approved by the Danish Animal Welfare Council, ministry of Justice. Five weeks old female nude BALB/c mice (Charles River, Sulzfeld, Germany) were allowed to acclimatize for one week with access to water and chow ad libitum. Human colon cancer cell line (LS174T; obtained from ATCC) was cultured in minimum essential medium (MEM) supplemented with 10% fetal bovine serum, 1% L-glutamine, 1% sodium pyruvate, 1% non-essential amino acids, and 1% penicillin-streptomycin at 37° C. and 5% CO2. Cells were harvested by trypsinization at a confluence of 70-90% and subcutaneous tumors were established in the left flank of the 6 weeks old animals by inoculation of 5×10^6 LS174T cells resuspended in sterile PBS (100 μL) and allowed to grow for 7-10 days. Tumors were measured using a caliper and the volume calculated using the formula volume=1/2 (length×width 2).
Tumor-bearing animals were matched in groups based on their tumor volume (tumor volumes of ˜100-300 mm^3, n=3 in each group) and were administered 100 μg/100 μL of CC49-TCO (100 μg/100 μL, ˜7 TCO/mAb) per mouse. After 3 days, animals were injected with non-radioactive Tz (10-20 nmol). After 1 h, they were administered with IniTz-Tg (˜13 MBq/100 μL, 1-2 nmol) via the tail vein. [^111In]Tz-Tg was obtained and radiolabeled as previously described in Borjesson, P. K.; Jauw, Y. W.; de Bree, R.; Roos, J. C.; Castelijns, J. A.; Leemans, C. R.; van Dongen, G. A.; Boellaard, R. Radiation dosimetry of 89 Zr-labeled chimeric monoclonal antibody U36 as used for immuno-PET in head and neck cancer patients. J Nucl Med 2009, 50, 1828-36. The mice were euthanized after 22 h and tumor, blood, heart, lung, liver, spleen, kidney, and muscle were resected. All tissues were weighted, and the radioactivity measured in a gamma counter (Wizard2, Perkin Elmer) and data was corrected for decay, tissue weight and injected amount of radioactivity. FIG. 3 illustrate the workflow of the blocking assay.

[5] = Reaction kinetics of tetrazines with TCO (stopped-flow, pseudo-first-order); assay type: physicochemical; conditions: Second order rate constants with TCO at 37° C. in PBS
Experimental: Reaction kinetics of tetrazines with standard TCO were determined using pseudo-first-order measurements with an excess of the TCO compound in PBS (pH=7.4) at 37.0±0.1° C. following the decrease of tetrazine absorbance at 535 nm. Measurements were performed in triplicates using an SX20 stopped-flow photometer (Applied Photophysics, UK) equipped with a 535 nm LED light source. Data analysis was performed using Prism 6 (Graphpad) to determine the observed rate constants which were converted into secondorder rate constants through dividing by the TCO concentration.
Second-order rate constants for the reaction with TCO in PBS at 37° C. were determined by pseudo-first order measurements in a SX20 stopped flow photometer (Applied Photophysics).

stability of precursor ([1]; analytical HPLC): decomposed over time
time stable ([1]; dissolved (25 mg/mL) in DMSO and frozen at −20° C.): at least 3 months
time stable ([1]; stored at −20° C. as a solid): ≥ 3 months
SMILES: CC(C)(C)OC(=O)CN(CC(=O)OC(C)(C)C)Cc1ccc(-c2nncnn2)cc1OCCOS(=O)(=O)c1ccc([N+](=O)[O-])cc1 [Compound 28, Di-tert-butyl 2,2′-((2-(2-(((4-nitrophenyl)sulfonyl)oxy)ethoxy)-4-(1,2,4,5-tetrazin-3-yl)benzyl)azanediyl)diacetate]

SMILES: O=C(O)CN(CC(=O)O)Cc1ccc(-c2nncnn2)cc1OCC[18F] [[^18F]13]
ability to react with TCO-PNP ([2]; after 4 hours at r.t.): quantitatively
tetrazine core after radiolabeling [2]: intact
Stability at r.t. over 4 hours ([1]; after 4 hours at r.t.): no signs of decomposition
time stable ([1]; formulated tracer at r.t., analytical HPLC): at least 4 hours
tumor-to-blood (T/B) ratio (CC49-TCO [3]): 1.2
Uptake in tissues beside tumor and blood (CC49-TCO [3]; PET/CT 1 h p.i.): low
tumor uptake, control (CC49-TCO [3]; PET/CT 1 h p.i., control mice injected with unconjugated CC49 72 h prior, mean±S.E.M): 0.01±0.01 % ID/g
tumor uptake (CC49-TCO [3]; PET/CT 1 h p.i., mean±S.E.M): 1.87±0.31 % ID/g
tumor-to-muscle ratio in comparison (CC49-TCO [3]): highest
tumor-to-muscle (T/M) ratio (CC49-TCO [3]): 20.1
pharmacokinetics (CC49-TCO [3]): favorable

SMILES: O=C(O)C(F)(F)F.O=C(O)CN(CCF)Cc1cc(F)cc(-c2nncnn2)c1 [Compound 9, N-(carboxymethyl)-2-fluoro-N-(3-fluoro-5-(1,2,4,5-tetrazin-3-yl)benzyl)ethanaminium 2,2,2-trifluoroacetate]
Normalized Tumor blocking effect (CC49-TCO [4]): 76

SMILES: O=C(O)C(F)(F)F.O=C(O)CN(CCF)Cc1cccc(-c2nncnn2)c1 [Compound 10, N-(3-(1,2,4,5-tetrazin-3-yl)benzyl)-N-(carboxymethyl)-2-fluoroethanaminium 2,2,2-trifluoroacetate]
Normalized Tumor blocking effect (CC49-TCO [4]): 75

tetrazine core after radiolabeling [2]: intact
SMILES: O=C(O)CN(CC(=O)O)Cc1ccc(-c2nnc(-c3ccc(OCC[18F])cn3)nn2)nc1 [[^18F]14]
tumor-to-blood (T/B) ratio (CC49-TCO [3]): 0.8
Uptake in muscle tissue (CC49-TCO [3]; PET/CT 1 h p.i.): generally low
uptake in blood (heart used as a surrogate) (CC49-TCO [3]; PET/CT 1 h p.i., CC49-TCO group): high
tumor uptake (CC49-TCO [3]; PET/CT 1 h p.i., mean±S.E.M): 1.8±0.3 % ID/g
tumor-to-muscle ratio in comparison (CC49-TCO [3]): highest
tumor-to-muscle (T/M) ratio (CC49-TCO [3]): 9.0
pharmacokinetics (CC49-TCO [3]): favorable

SMILES: O=C(O)C(F)(F)F.O=C(O)CN(CC(=O)O)Cc1ccc(-c2nnc(-c3ccc(OCCF)cn3)nn2)nc1 [Compound 14, 1-Carboxy-N-(carboxymethyl)-N-((6-(6-(5-(2-fluoroethoxy)pyridin-2-yl)-1,2,4,5-tetrazin-3-yl)pyridin-3-yl)methyl)methanaminium 2,2,2-trifluoroacetate]
blocking effect (CC49-TCO [4]; blocking of [111In]Tz-Tg binding to CC49-TCO in vivo): 99%
Normalized Tumor blocking effect (CC49-TCO [4]): 99

SMILES: O=C(O)C(F)(F)F.O=C(O)CN(CC(=O)O)Cc1ccc(-c2nncnn2)cc1OCCF [Compound 13, 1-Carboxy-N-(carboxymethyl)-N-(2-(2-fluoroethoxy)-4-(1,2,4,5-tetrazin-3-yl)benzyl) methanaminium 2,2,2-trifluoroacetate]
Normalized Tumor blocking effect (CC49-TCO [4]): 98

SMILES: O=C(O)CN(CC(=O)O)Cc1ccc(-c2nnc(-c3ccc(OCCF)cn3)nn2)nc1 [Tz-Tg, reference compound]
Rate constant [5]: 73742 M⁻¹ s⁻¹
Normalized Tumor blocking effect (CC49-TCO [4]): 99

SMILES: O=C(O)C(F)(F)F.O=C(O)CN(CCF)Cc1ccc(-c2nncnn2)cc1 [Compound 12, N-(4-(1,2,4,5-tetrazin-3-yl)benzyl)-N-(carboxymethyl)-2-fluoroethanaminium 2,2,2-trifluoroacetate]
Normalized Tumor blocking effect (CC49-TCO [4]): 69

SMILES: O=C(O)C(F)(F)F.O=C(O)CN(CCF)Cc1ccc(-c2nncnn2)cc1F [Compound 11, N-(carboxymethyl)-2-fluoro-N-(2-fluoro-4-(1,2,4,5-tetrazin-3-yl)benzyl)ethanaminium 2,2,2-trifluoroacetate]
Normalized Tumor blocking effect (CC49-TCO [4]): 69
